Data taken from patent US7868204B2, “Inhibitors of histone deacetylase” (MethylGene Inc., priority 2001, dated 2011).
Where two headings read alike, the source gives them in different places.

Assays:
[1] = system: acetylated histone H-4 in T24 human bladder cancer cells; assay: Histone H4 acetylation in whole cells by immunoblots; format: cell-based; settings: 16 h
Description: T24 human bladder cancer cells growing in culture were incubated with HDAC inhibitors for 16 h. […] of total histone protein was loaded onto SDS/PAGE and transferred to nitrocellulose membranes. Membranes were probed with polyclonal antibodies specific for acetylated histone H-4 (Upstate Biotech Inc.), followed by horse radish peroxidase conjugated secondary antibodies (Sigma). Enhanced Chemiluminescence (ECL) (Amersham) detection was performed using Kodak films (Eastman Kodak). Acetylated H-4 signal was quantified by densitometry.

HCT116 cells = assay: MTT assay; format: cell-based; settings: Homo sapiens, HCT116 cells, 72 hours
In short: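 Read-out: MTT (0.5 mg/ml final, 4 h) after solubilization in 50% DMF/20% SDS, pH 4.7, with OD translated into cell number via the line's growth curve. Compound treatment lasted 72 h at 37 °C in 5% CO2, starting a day after plating.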

[2] = molecular target: T1, cloned recombinant human HDAC-1 (Homo sapiens, UniProt Q13547); assay: Human HDAC-1 enzyme inhibition, Assay 1 ([3H]-acetylated histone substrate, scintillation counting); format: biochemical
T1 construct: made in house; host or cells: Baculovirus insect cell expression system
In short: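 Activity read as [3H]-acetic acid liberated from labeled substrate, ethyl acetate-extracted and scintillation-counted. Compounds preincubated 30 min at 4° C. with baculovirus-expressed, purified human HDAC-1. Dose-response curves give IC50 as concentration producing fifty percent of maximal inhibition.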

[3] = T-24, Table 5F, read-out: H4 Ac (T24) EC50
[4] = Table 5d, read-out: HDAC-1 IC50
[5] = Table 5b, read-out: Human HDAC-1 IC50
[6] = Table 5F, read-out: Human HDAC-1 IC50
[7] = Table 5c, read-out: Human HDAC-1 IC50

T1 sequence (Q13547 whole entry): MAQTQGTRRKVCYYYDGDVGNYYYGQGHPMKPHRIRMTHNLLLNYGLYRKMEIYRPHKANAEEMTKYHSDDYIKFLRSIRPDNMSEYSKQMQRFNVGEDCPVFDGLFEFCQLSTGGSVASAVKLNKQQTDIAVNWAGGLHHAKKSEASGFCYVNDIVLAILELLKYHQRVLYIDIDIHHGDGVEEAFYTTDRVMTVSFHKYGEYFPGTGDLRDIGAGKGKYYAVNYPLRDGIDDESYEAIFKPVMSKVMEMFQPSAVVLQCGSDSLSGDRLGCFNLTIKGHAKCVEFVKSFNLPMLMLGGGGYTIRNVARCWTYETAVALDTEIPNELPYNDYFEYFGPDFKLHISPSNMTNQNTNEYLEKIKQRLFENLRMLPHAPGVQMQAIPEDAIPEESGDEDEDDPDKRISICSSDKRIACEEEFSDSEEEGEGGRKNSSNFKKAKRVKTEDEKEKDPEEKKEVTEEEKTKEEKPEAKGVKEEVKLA

SMILES	IC50 (HCT116 cells; HCT-116, 72 h, Table 5F) [µM]	IC50 (HCT116 cells; HCT-116, Table 5d) [µM]	IC50 [2, 4] [µM]	IC50 [2, 6] [µM]	other results
COc1cc(CNc2ccc(C(=O)Nc3ccccc3N)cc2)cc(OC)c1OC [Cpd 412, N-(2-Amino-phenyl)-4-(3,4,5trimethoxybenzylamino)-benzamide]	2				EC50 [1, 3]: 3 µM
COc1cc(NCc2ccc(C(=O)Nc3ccccc3N)cc2)cc(OC)c1OC [Cpd 164]					EC50 ([1]; T-24, Table 5E, read-out: H4 Ac (T24) EC50): 3 µM; IC50 (HCT116 cells; HCT-116, 72 h, Table 5E): 2 µM
Nc1ccccc1NC(=O)/C=C/c1cnc(NCc2ccc([N+](=O)[O-])cc2)nc1 [Cpd 113, N-(2-amino-phenyl)-3-[2-(4-nitro-benzylamino)-pyrimidin-5-yl]-acrylamide]					EC50 ([1]; T-24, Table 5c, read-out: H4Ac (T24) EC50): 5 µM; IC50 (HCT116 cells; HCT-116, 72 h, Table 5c): 0.3 µM
COc1ccc(-c2ccnc(NCc3ccc(C(=O)Nc4ccccc4N)cc3)n2)cc1OC [Cpd 440, N-(2-Amino-phenyl)-4-{[4-(3,4-dimethoxy-phenyl)-pyrimidin-2-ylamino]-methyl}-benzamide]	0.1				EC50 [1, 3]: 2 µM
COc1ccc(-c2ccnc(NCc3ccc(C(=O)Nc4ccccc4N)cc3)n2)cn1 [Cpd 578, N-(2-Amino-phenyl)-4-{[4-(6-methoxy-pyridin-3-yl)-pyrimidin-2-ylamino]-methyl}-benzamide]	0.1				EC50 [1, 3]: 1 µM
COc1cc(NCc2ccc(/C=C/C(=O)Nc3ccccc3N)cc2)cc(OC)c1 [Cpd 494]		4	3		
Nc1nc(N)nc(/C=C/c2ccc(C(=O)Nc3ccccc3N)cc2)n1 [Cpd 220]					IC50 (HCT116 cells; HCT-116, 72 h, Table 5b): 6 µM; IC50 [2, 5]: 7 µM
Nc1ccccc1NC(=O)/C=C/c1ccc(CNc2cccc(OC(F)(F)F)c2)cc1 [Cpd 506, N-(2-Amino-phenyl)-3-{4-[(3-trifluoromethoxy-phenylamino)-methyl]-phenyl}-acrylamide]		11	15		
Cc1ccc(NCc2ccc(C(=O)Nc3ccccc3N)cc2)c(C)c1 [Cpd 409, N-(2-Amino-phenyl)-4-[(2,4-dimethyl-phenylamino)-methyl]-benzamide]	1			3	
Nc1ccccc1NC(=O)/C=C/c1ccc(NC/C=C/c2ccccc2)cc1 [Cpd 71]					IC50 (HCT116 cells; HCT-116, 72 h, Table 5c): 44 µM; IC50 [2, 7]: 10 µM
CCN1C(=O)C(Cc2ccc(C(=O)Nc3ccccc3N)cc2)Oc2ccccc21 (centres unmarked) [compound 269, N-(2-Amino-phenyl)-4-(4-ethyl-3-oxo-3,4-dihydro-2H-benzo[1,4]oxazin-2-ylmethyl)-benzamide]	4			9	
Nc1nc(CCc2ccc(C(=O)Nc3ccccc3N)cc2)nc(N2CCCCC2)n1 [Cpd 224]					IC50 (HCT116 cells; HCT-116, 72 h, Table 5b): 3 µM; IC50 [2, 5]: 5 µM
CSc1ccc(NCc2ccc(/C=C/C(=O)Nc3ccccc3N)cc2)cc1C(F)(F)F [Cpd 566, N-(2-Amino-phenyl)-3-{4-[(4-methylsulfanyl-3-trifluoromethyl-phenylamino)-methyl]-phenyl]-acrylamide]		16	3		
Nc1ccccc1NC(=O)/C=C/c1ccc(CNc2ccc([N+](=O)[O-])c(C(F)(F)F)c2)cc1 [Cpd 534, N-(2-Amino-phenyl)-3-{4[(4-nitro-3-trifluoromethyl-phenylamino)-methyl]-phenyl}-acrylamide]		5	3		
Nc1ccccc1NC(=O)/C=C/c1ccc(CNc2cccc(O)c2)cc1 [Cpd 528]		32	20		
CC(=O)c1cc2c(cc1NCc1ccc(/C=C/C(=O)Nc3ccccc3N)cc1)OCO2 [Cpd 501, 3-{4-[(6-Acetyl-benzo[1,3]dioxol-5-ylamino)-methyl]-phenyl}-N-(2-amino-phenyl)-acrylamide]		10	4		
COc1cc(N2C(=O)OCC2c2ccc(C(=O)Nc3ccccc3N)cc2)cc(OC)c1OC (centres unmarked) [compound 296, N-(2-Amino-phenyl)-4-[2-oxo-3-(3,4,5-trimethoxy-phenyl)-oxazolidin-4-yl]-benzamide]	7			20	
Nc1ccccc1NC(=O)c1ccc(CSc2nc3cc(OCCN4CCOCC4)ccc3[nH]2)cc1 [Cpd 236]	6			5	
Nc1ccccc1NC(=O)/C=C/c1ccc(CNc2cccc(Br)c2)cc1 [Cpd 546, N-(2-Amino-phenyl)-3-{4-[(3-bromo-phenylamino)-methyl]-phenyl}-acrylamide]		10	3		
Nc1ccccc1NC(=O)c1ccc(-c2noc(CN3CCCCC3)n2)cc1 [Cpd 354, N-(2-Amino-phenyl)-4-(5-piperidin-1-ylmethyl-[1,2,4]oxadiazol-3-yl)-benzamide]	5			15	

SMILES	IC50 (HCT116 cells; HCT-116, 72 h, Table 5F) [µM]	IC50 (HCT116 cells; HCT-116, Table 5d) [µM]	IC50 [2, 4] [µM]	IC50 [2, 6] [µM]	other results
Cc1nc(Cc2ccc(C(=O)Nc3ccccc3N)cc2)no1 [compound 284, N-(2-Amino-phenyl)-4-(5-methyl-[1,2,4]oxadiazol-3-ylmethyl)-benzamide]	5			3	
Nc1ccccc1NC(=O)c1ccc(-c2noc(-c3ccccc3)n2)cc1 [Cpd 352, N-(2-Amino-phenyl)-4-(5-phenyl-[1,2,4]oxadiazol-3-yl)-benzamide]	9			16	
Nc1ccccc1NC(=O)/C=C/c1ccc(CNc2cccc(S(=O)(=O)NCCCN3CCOCC3)c2)cc1 [Cpd 539, N-(2-Amino-phenyl)-3-(4-{[3-(3-morpholin-4-yl-propylsulfamoyl)-phenylamino]-methyl}-phenyl)-acrylamide]		10	2		
Nc1ccccc1NC(=O)/C=C/c1ccc(NCc2cccc(OC(F)(F)F)c2)cc1 [Cpd 496, N-(2-Amino-phenyl)-3-[4-(3-trifluoromethoxy-benzylamino)-phenyl]-acrylamide]		13	8		
Nc1ccccc1NC(=O)c1ccc(CN2C(=O)COc3cccnc32)cc1 [Cpd 364, N-(2-Amino-phenyl)-4-(3-oxo-2,3-dihydro-pyrido[3,2-b][1,4]oxazin-4-ylmethyl)-benzamide]	0.6			4	
Nc1ccccc1NC(=O)c1ccc(CNc2nc(NC3Cc4ccccc4C3)nc(-c3ccccc3)n2)cc1 [Cpd 485, N-(2-amino-phenyl)-4-{[6-(2-indanyl-amino)-4-phenyl-[1,3,5]-triazin-2-yl-amino]-methyl}-benzamide]					IC50 (HCT116 cells; HCT-116, 72 h, Table 5b): 3 µM; IC50 [2, 5]: 0.4 µM
CSc1cccc(NCc2ccc(/C=C/C(=O)Nc3ccccc3N)cc2)c1 [Cpd 555, N-(2-Amino-phenyl)-3-{4-[(3-methylsulfanyl-phenylamino)-methyl]-phenyl}-acrylamide]		7	14		
Nc1ccccc1NC(=O)/C=C/c1ccc(CNc2cccc(F)c2)cc1 [Cpd 559, N-(2-Amino-phenyl)-3-{4-[(3-fluoro-phenylamino)-methyl]-phenyl}-acrylamide]		11	4		
Nc1ccccc1NC(=O)/C=C/c1ccc(CNc2ccc(Br)cc2)cc1 [Cpd 545, N-(2-Amino-phenyl)-3-{4[(4-bromo-phenylamino)-methyl]-phenyl}-acrylamide]		12	2		
Nc1ccccc1NC(=O)/C=C/c1ccc(CNc2ccc3c(c2)OCO3)cc1 [Cpd 505, N-(2-Amino-phenyl)-3-[4-(benzo[1,3]dioxol-5-ylaminomethyl)-phenyl]-acrylamide]		6	3		
COc1ccc(C(=O)Nc2ccc(/C=C/C(=O)Nc3ccccc3N)cn2)cc1 [Cpd 114]					IC50 (HCT116 cells; HCT-116, 72 h, Table 5c): 0.5 µM; IC50 [2, 7]: 25 µM
COc1cc(NCc2ccc(C(=O)Nc3ccccc3N)cn2)cc(OC)c1OC [Cpd 445, N-(2-Amino-phenyl)-6-[(3,4,5-trimethoxy-phenylamino)-methyl]-nicotinamide]	6			16	
Nc1ccccc1NC(=O)c1ccc(CNc2nc(NCCc3ccccn3)nc(NC3CC3)n2)cc1 [Cpd 480]					IC50 (HCT116 cells; HCT-116, 72 h, Table 5b): 0.5 µM; IC50 [2, 5]: 0.8 µM
N#C/N=C(\NCc1ccc(C(=O)Nc2ccccc2N)cc1)Nc1ccncc1 [Cpd 240]	10			1.8	
Nc1ccccc1NC(=O)c1ccc(CNc2nc(NC3CC3)nc(OCCc3ccccc3)n2)cc1 [Cpd 482]					IC50 (HCT116 cells; HCT-116, 72 h, Table 5b): 0.7 µM; IC50 [2, 5]: 0.1 µM
Nc1ccccc1NC(=O)c1ccc(CNc2ccc(OCc3cccnc3)cc2)cc1 [Cpd 408, N-(2-Amino-phenyl)-4-{[4-(pyridin-3-ylmethoxy)-phenylamino]-methyl}-benzamide]	2			4	
COc1cc(C2C=CC(c3ccc(C(=O)Nc4ccccc4N)cc3)O2)cc(OC)c1OC (centres unmarked) [compound 289, N-(2-Amino-phenyl)-4-[5-(3,4,5-trimethoxy-phenyl)-2,5-dihydro-furan-2-yl]-benzamide]	5			17	
COc1cc(Nc2ccc(/C=C/C(=O)Nc3ccccc3N)cc2)cc(OC)c1OC [Cpd 481]		10	22		
Cc1ccc(CNc2ccc(/C=C/C(=O)Nc3ccccc3N)cn2)cc1 [Cpd 117, N-(2-Amino-phenyl)-3-[6-(4-methyl-benzylamino)-pyridin-3-yl]-acrylamide]					IC50 (HCT116 cells; HCT-116, 72 h, Table 5c): 3 µM; IC50 [2, 7]: 7 µM
COc1cc(CN(C)Cc2ccc(/C=C/C(=O)Nc3ccccc3N)cc2)cc(OC)c1OC [Cpd 107]					IC50 (HCT116 cells; HCT-116, 72 h, Table 5c): 17 µM; IC50 [2, 7]: 15 µM
